Assay results taken from ChEMBL document CHEMBL5038570, “Discovery of Novel Pyrrolo[2,3-d]pyrimidine-based Derivatives as Potent JAK/HDAC Dual Inhibitors for the Treatment of Refractory Solid Tumors” (J Med Chem, 2022).

Legend:
[1] = target: Tyrosine-protein kinase JAK2 (Homo sapiens, UniProt O60674); experiment: Inhibition of JAK2 (unknown origin) preincubated for 60 mins followed by reagent A addition and measured after 60 mins in presence of ATP by using microplate reader method
[2] = target: T1, Protein deacetylase HDAC6 (Homo sapiens, UniProt Q9UBN7); experiment: Inhibition of HDAC6 (unknown origin) incubated for 60 mins by microplate reader analysis
T1 sequence (Q9UBN7 whole entry): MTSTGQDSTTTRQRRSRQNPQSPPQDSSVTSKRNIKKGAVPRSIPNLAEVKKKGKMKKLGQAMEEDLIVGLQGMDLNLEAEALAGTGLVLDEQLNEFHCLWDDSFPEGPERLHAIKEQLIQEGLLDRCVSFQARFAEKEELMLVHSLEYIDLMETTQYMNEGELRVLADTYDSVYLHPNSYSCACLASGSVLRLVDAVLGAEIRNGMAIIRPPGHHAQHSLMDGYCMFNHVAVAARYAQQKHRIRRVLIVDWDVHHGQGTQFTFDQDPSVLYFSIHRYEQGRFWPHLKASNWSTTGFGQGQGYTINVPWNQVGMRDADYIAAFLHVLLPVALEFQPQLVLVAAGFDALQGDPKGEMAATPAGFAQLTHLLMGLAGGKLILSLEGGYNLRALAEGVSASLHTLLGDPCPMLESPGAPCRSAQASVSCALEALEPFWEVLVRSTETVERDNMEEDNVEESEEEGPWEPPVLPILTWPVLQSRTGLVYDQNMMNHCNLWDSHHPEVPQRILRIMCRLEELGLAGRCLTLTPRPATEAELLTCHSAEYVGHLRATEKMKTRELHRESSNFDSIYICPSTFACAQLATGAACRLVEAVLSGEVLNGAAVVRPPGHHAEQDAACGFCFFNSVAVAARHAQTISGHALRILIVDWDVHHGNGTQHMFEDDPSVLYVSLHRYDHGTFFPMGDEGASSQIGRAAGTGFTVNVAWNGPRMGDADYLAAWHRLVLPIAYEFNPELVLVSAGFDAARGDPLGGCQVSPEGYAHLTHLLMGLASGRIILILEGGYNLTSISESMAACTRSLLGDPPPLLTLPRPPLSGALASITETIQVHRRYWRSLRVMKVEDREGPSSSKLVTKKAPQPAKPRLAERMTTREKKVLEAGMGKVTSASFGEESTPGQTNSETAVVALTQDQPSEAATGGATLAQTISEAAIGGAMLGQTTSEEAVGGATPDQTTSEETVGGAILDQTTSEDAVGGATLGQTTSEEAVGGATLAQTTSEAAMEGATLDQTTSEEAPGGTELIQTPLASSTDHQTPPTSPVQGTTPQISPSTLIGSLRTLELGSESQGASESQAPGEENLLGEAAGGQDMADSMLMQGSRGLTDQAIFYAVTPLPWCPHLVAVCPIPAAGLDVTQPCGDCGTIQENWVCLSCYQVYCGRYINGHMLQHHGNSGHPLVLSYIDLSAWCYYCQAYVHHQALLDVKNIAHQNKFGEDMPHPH

Histone deacetylase 1 = Histone deacetylase 1 (Homo sapiens, UniProt Q13547); experiment: Inhibition of HDAC1 (unknown origin) incubated for 60 mins using microplate reader analysis
Chain of Histone deacetylase 1 (Q13547 whole entry): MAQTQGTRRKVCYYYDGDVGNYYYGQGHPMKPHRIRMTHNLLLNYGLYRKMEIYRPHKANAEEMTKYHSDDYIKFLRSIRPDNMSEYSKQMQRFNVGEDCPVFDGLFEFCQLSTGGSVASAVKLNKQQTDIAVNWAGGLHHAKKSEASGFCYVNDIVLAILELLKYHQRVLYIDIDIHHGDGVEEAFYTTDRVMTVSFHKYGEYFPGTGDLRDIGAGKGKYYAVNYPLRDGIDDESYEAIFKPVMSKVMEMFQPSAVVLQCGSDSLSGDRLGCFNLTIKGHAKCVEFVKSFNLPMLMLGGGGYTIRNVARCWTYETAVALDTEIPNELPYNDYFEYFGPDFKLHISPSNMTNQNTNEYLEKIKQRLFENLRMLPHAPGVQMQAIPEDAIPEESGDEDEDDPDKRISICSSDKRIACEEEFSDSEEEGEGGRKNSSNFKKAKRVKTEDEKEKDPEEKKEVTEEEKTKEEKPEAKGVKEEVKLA

[3] = target: Tyrosine-protein kinase JAK1 (Homo sapiens, UniProt P23458); experiment: Inhibition of JAK1 (unknown origin) preincubated for 60 mins followed by reagent A addition and measured after 60 mins in presence of ATP by using microplate reader method
Chain of Tyrosine-protein kinase JAK1 (P23458 whole entry): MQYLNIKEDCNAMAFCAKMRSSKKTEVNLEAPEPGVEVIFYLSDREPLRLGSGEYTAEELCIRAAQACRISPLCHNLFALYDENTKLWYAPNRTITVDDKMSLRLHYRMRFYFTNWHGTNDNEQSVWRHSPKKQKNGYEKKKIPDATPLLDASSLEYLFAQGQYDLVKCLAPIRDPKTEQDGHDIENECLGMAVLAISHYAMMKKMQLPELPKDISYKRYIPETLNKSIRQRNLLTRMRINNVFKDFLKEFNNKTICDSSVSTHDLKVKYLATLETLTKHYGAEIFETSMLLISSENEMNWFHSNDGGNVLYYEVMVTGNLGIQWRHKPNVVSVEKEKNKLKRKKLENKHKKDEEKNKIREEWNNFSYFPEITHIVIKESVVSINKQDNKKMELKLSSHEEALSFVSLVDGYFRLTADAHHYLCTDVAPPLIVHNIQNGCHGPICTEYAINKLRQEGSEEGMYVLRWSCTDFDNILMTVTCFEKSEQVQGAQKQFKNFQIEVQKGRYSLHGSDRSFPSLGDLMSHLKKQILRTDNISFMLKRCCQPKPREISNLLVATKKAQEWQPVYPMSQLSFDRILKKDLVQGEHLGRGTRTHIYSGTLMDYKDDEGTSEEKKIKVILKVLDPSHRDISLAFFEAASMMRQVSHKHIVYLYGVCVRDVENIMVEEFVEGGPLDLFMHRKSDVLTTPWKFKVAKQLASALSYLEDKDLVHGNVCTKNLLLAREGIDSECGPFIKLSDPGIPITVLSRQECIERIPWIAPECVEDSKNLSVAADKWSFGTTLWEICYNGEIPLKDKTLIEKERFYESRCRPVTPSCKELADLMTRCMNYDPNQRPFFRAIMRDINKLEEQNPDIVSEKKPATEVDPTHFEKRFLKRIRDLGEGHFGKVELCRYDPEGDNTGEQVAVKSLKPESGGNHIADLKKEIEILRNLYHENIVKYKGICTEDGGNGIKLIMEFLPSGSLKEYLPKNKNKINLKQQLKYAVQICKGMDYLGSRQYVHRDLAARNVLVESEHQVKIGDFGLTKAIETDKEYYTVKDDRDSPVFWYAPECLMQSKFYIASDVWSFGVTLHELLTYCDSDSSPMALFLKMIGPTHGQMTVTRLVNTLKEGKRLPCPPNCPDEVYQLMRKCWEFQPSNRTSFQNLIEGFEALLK

[4] = target: T2, Tyrosine-protein kinase JAK3 (Homo sapiens, UniProt P52333); experiment: Inhibition of JAK3 (unknown origin) preincubated for 60 mins followed by reagent A addition and measured after 60 mins in presence of ATP by using microplate reader method
T2 sequence (P52333 whole entry): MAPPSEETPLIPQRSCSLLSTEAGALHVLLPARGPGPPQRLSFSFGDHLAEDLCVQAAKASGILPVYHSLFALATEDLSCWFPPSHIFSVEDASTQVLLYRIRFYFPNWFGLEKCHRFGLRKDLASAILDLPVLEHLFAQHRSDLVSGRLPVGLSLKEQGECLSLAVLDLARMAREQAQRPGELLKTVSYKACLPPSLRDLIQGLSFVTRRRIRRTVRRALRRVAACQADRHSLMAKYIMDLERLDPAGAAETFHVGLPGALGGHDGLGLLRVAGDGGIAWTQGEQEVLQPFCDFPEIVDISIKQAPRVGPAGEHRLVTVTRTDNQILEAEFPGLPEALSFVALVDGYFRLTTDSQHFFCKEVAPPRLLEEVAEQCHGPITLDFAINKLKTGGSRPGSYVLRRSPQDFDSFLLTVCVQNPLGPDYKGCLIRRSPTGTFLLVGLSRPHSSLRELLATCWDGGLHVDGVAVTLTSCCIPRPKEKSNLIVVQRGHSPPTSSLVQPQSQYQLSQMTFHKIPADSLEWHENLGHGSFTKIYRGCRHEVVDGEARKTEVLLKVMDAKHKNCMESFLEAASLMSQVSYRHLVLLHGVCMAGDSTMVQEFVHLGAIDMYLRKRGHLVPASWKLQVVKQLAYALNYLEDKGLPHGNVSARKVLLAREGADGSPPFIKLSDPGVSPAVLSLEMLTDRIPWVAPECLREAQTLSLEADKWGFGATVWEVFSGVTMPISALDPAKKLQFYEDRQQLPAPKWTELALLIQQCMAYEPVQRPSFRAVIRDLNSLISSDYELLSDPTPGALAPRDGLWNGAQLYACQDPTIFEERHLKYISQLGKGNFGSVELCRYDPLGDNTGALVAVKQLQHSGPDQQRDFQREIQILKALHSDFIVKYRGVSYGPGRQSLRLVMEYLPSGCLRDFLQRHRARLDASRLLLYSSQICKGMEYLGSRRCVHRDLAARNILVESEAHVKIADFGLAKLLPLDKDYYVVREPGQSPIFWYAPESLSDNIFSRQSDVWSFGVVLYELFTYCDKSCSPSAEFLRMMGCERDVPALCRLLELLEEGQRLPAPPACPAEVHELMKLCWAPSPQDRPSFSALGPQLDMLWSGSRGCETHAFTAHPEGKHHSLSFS

[5] = target: T3, Protein deacetylase HDAC6 (Homo sapiens) (UniProt Q9UBN7); experiment: Inhibition of HDAC6 (unknown origin) at 10 nM incubated for 60 mins by microplate reader analysis relative to control
T3 sequence (whole entry): T1 sequence (Q9UBN7 whole entry)

[6] = target: Non-receptor tyrosine-protein kinase TYK2 (Homo sapiens, UniProt P29597); experiment: Inhibition of TYK2 (unknown origin) incubated for 40 min in presence of ATP by microplate reader analysis
Chain of Non-receptor tyrosine-protein kinase TYK2 (P29597 whole entry): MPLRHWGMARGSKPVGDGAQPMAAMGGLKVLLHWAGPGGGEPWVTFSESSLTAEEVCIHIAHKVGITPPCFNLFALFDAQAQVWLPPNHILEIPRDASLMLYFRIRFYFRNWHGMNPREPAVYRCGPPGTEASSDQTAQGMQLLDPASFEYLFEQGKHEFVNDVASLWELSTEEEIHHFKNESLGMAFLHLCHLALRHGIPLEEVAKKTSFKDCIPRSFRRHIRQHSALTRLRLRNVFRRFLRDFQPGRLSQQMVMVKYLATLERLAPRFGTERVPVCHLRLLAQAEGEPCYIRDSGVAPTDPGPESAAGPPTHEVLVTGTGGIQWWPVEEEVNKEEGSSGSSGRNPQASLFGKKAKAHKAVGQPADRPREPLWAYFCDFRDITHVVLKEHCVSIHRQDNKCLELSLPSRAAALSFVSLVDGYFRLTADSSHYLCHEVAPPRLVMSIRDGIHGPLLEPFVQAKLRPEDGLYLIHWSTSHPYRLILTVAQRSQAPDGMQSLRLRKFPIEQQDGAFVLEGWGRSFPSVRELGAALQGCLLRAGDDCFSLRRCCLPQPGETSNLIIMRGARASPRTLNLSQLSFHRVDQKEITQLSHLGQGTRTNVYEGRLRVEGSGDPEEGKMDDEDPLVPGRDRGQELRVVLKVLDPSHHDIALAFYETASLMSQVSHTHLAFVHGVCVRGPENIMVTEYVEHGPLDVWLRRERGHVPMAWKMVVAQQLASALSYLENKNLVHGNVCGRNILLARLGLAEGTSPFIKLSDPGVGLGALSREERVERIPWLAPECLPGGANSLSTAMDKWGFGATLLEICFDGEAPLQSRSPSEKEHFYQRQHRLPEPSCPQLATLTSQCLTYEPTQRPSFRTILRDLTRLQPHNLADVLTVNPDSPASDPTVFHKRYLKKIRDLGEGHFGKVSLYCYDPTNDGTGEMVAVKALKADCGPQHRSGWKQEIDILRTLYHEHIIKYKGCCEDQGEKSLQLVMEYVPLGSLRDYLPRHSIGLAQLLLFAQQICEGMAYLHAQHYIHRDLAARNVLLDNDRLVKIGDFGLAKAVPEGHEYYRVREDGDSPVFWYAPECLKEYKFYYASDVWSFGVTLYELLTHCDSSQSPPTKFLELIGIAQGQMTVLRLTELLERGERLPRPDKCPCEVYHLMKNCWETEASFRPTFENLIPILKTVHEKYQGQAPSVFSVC

4T1 = experiment: cells; assay type: functional, cell-based; conditions: Mus musculus, 4T1, 72 h
MDA-MB-231 = experiment: cells; assay type: functional, cell-based; conditions: Homo sapiens, MDA-MB-231, 72 h
BT-549 = experiment: cells; assay type: functional, cell-based; conditions: Homo sapiens, BT-549, 72 h
MDA-MB-468 = experiment: cells; assay type: functional, cell-based; conditions: Homo sapiens, MDA-MB-468, 72 h
CAL-51 = experiment: cells; assay type: functional, cell-based; conditions: Homo sapiens, CAL-51, 72 h

Chain of Tyrosine-protein kinase JAK2 (O60674 whole entry): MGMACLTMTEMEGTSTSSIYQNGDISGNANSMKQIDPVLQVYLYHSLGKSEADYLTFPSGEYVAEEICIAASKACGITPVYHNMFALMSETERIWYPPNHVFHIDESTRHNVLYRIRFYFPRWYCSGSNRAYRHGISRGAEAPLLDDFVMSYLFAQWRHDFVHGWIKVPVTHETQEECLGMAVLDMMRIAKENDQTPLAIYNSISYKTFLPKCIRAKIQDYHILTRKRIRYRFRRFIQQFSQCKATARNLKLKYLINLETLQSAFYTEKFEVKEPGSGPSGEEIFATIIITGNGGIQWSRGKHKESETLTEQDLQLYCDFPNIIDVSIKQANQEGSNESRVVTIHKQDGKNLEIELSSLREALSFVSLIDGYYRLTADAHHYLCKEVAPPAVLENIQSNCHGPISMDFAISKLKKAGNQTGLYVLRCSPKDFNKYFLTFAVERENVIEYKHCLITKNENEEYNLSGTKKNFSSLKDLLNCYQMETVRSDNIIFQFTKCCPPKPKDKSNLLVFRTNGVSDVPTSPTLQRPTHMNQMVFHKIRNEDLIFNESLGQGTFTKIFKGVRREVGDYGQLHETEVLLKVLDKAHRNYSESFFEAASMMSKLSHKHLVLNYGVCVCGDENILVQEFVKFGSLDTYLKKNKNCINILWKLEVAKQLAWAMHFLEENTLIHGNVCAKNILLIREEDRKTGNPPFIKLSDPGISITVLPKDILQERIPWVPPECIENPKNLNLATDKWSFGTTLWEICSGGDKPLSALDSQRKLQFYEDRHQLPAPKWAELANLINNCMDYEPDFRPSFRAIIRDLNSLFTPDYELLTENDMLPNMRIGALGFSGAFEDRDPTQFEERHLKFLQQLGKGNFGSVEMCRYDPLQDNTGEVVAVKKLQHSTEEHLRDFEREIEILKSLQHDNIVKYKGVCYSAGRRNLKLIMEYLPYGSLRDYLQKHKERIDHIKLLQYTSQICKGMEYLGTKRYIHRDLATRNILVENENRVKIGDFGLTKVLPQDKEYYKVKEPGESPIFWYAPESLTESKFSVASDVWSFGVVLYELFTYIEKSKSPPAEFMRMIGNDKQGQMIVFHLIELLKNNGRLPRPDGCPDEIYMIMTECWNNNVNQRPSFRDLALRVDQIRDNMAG

| Structure (SMILES) | IC50 [1] [nM] | IC50 [2] [nM] | inhibition [5] [%] | other results |
| --- | --- | --- | --- | --- |
| O=C(CCCCCn1cc(Nc2ncc3ccn(Cc4cccc(F)c4)c3n2)cn1)NO | 4.1 | 13.7 |  | IC50 (Histone deacetylase 1): 173 nM; IC50 [3]: 8.7 nM; IC50 [4]: 12.6 nM |
| O=C(CCCCCCn1cc(Nc2ncc3ccn(Cc4cccc(Cl)c4)c3n2)cn1)NO | 39.8 | 36.8 |  |  |
| O=C(CCCCCCn1cc(Nc2ncc3ccn(Cc4ccc(Cl)cc4)c3n2)cn1)NO | > 100 |  | 39 |  |
| O=C(CCCCCCn1cc(Nc2ncc3ccn(Cc4ccccc4)c3n2)cn1)NO | 51 | 12.5 |  |  |
| O=C(CCCCCCn1cc(Nc2ncc3ccn(Cc4ccc(F)cc4)c3n2)cn1)NO | > 100 |  | 62 |  |
| O=C(CCCCCCn1cc(Nc2ncc3ccn(-c4ccc(F)cc4)c3n2)cn1)NO | 32.9 | 21.6 |  |  |
| CS(=O)(=O)c1ccc(-n2ccc3cnc(Nc4cnn(CCCCCC(=O)NO)c4)nc32)cc1 | 9.8 | 10.8 |  |  |
| O=C(CCCCCn1cc(Nc2ncc3ccn(Cc4ccc(Cl)cc4)c3n2)cn1)NO | > 100 |  | 38 |  |
| O=C(CCCCCCn1cc(Nc2ncc3ccn(C4CCCC4)c3n2)cn1)NO | > 100 | 22 |  |  |
| O=C(CCCCCCn1cc(Nc2ncc3ccn(CC4CCCCC4)c3n2)cn1)NO | 69 | 88 |  |  |
| O=C(CCCCCCn1cc(Nc2ncc3ccn(CC4CC4)c3n2)cn1)NO | > 100 | 16 |  |  |
| O=C(CCCCCCn1cc(Nc2ncc3ccn(-c4ccccc4)c3n2)cn1)NO | 16.8 | 13.1 |  | IC50 (Histone deacetylase 1): 52.1 nM; IC50 [3]: 19.6 nM; IC50 [4]: 81.2 nM; IC50 [6]: 23.5 nM |
| COc1ccc(Cn2ccc3cnc(Nc4cnn(CCCCCC(=O)NO)c4)nc32)cc1 | > 100 |  | 46 |  |
| O=C(CCCCCn1cc(Nc2ncc3ccn(CCc4ccccc4)c3n2)cn1)NO | > 100 |  | 41 |  |
| COc1cccc(Cn2ccc3cnc(Nc4cnn(CCCCCC(=O)NO)c4)nc32)c1 | 124 | 37.6 |  |  |
| COc1ccc(Cn2ccc3cnc(Nc4cnn(CCCCCCC(=O)NO)c4)nc32)cc1 | > 100 |  | 40 |  |
| O=C(CCCCCn1cc(Nc2ncc3ccn(Cc4ccc(F)cc4)c3n2)cn1)NO | > 100 |  | 46 |  |

| Structure (SMILES) | IC50 [1] [nM] | IC50 [2] [nM] | inhibition [5] [%] | other results |
| --- | --- | --- | --- | --- |
| CS(=O)(=O)c1ccc(-n2ccc3cnc(Nc4cnn(CCCCCCC(=O)NO)c4)nc32)cc1 | 15.7 | 5.9 |  |  |
| O=C(CCCCCCn1cc(Nc2nc(Nc3cccc(Cl)c3)c3ccccc3n2)cn1)NO | 9400 |  |  |  |
| O=C(CCCCCCn1cc(Nc2ncc3ccn(Cc4ccccc4Cl)c3n2)cn1)NO | 30.8 | 41.5 |  |  |
| O=C(CCCCCCn1cc(Nc2nccc(-c3cc(F)cc(F)c3)n2)cn1)NO | 2660 |  |  |  |
| Cc1ccc(Cn2ccc3cnc(Nc4cnn(CCCCCCC(=O)NO)c4)nc32)cc1 | > 100 |  | 38 |  |
| O=C(CCCCCCn1cc(Nc2ncc3ccn(-c4ccc(Cl)cc4)c3n2)cn1)NO | 48.2 | 33.4 |  |  |
| O=C(CCCCCCn1cc(Nc2ncc3ccn(-c4ccc(Br)cc4)c3n2)cn1)NO | 54.8 | 20.2 |  |  |
| O=C(CCCCCCn1cc(Nc2ncc3ccn(CCc4ccccc4)c3n2)cn1)NO | > 100 |  | 49 |  |
| O=C(CCCCCn1cc(Nc2ncc3ccn(-c4ccc(Br)cc4)c3n2)cn1)NO | 17.5 | 11.3 |  |  |
| O=C(CCCCCn1cc(Nc2ncc3ccn(Cc4ccccc4F)c3n2)cn1)NO | 10 | 15.3 |  | IC50 (Histone deacetylase 1): 145 nM; IC50 [3]: 32.3 nM; IC50 [4]: 18.4 nM; IC50 [6]: 13.3 nM |
| COc1cccc(Cn2ccc3cnc(Nc4cnn(CCCCCCC(=O)NO)c4)nc32)c1 | 209 | 28.8 |  |  |
| O=C(CCCCCn1cc(Nc2ncc3ccn(Cc4ccccc4Cl)c3n2)cn1)NO | 24.8 | 45 |  |  |
| Cc1ccc(Cn2ccc3cnc(Nc4cnn(CCCCCC(=O)NO)c4)nc32)cc1 | > 100 |  | 34 |  |
| O=C(CCCCCn1cc(Nc2ncc3ccn(Cc4ccccc4)c3n2)cn1)NO | 33 | 13.8 |  |  |
| O=C(CCCCCn1cc(Nc2ncc3ccn(Cc4cccc(Cl)c4)c3n2)cn1)NO | 17.7 | 34.4 |  |  |
| O=C(CCCCCCn1cc(Nc2ncc3ccn(Cc4cccc(F)c4)c3n2)cn1)NO | 15.7 | 14.7 |  | IC50 (Histone deacetylase 1): 92.1 nM; IC50 [3]: 19.9 nM; IC50 [4]: 16.1 nM; IC50 [6]: 21.7 nM; IC50 (4T1): 3720 nM; IC50 (MDA-MB-231): 3940 nM; IC50 (BT-549): 3020 nM; IC50 (MDA-MB-468): 2450 nM; IC50 (CAL-51): 1280 nM |
